Assay results as given in PubChem BioAssay AID1963843 (Molecular Pharmacology Branch, DTP, NCI, 2024).

Tested on: 616215-338-R-J1-PDC complex spheroid viability
Assay: Anticancer human tumor 616215-338-R-J1-PDC patient-derived colon adenocarcinoma cell line growth inhibition [POLQ]
Settings: for IC50: curve of first compound; for viability, T/C: stronger effect = lower value
How it was run: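 Three-cell-type spheroids modelling solid tumor plus stroma served as the readout system; POL inhibitors were tested individually and in combination, concentration ranges set by clinical Cmax where known.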

[1] = second compound 0.0316 µM, first compound 0.0316 µM
[2] = second compound 0.0316 µM, first compound 0.1 µM
[3] = second compound 0.0316 µM, first compound 0.316 µM
[4] = second compound 0.0316 µM, first compound 1 µM
[5] = second compound 0.0316 µM, first compound 3.16 µM
[6] = second compound 0.0316 µM, first compound 10 µM
[7] = second compound 0.1 µM, first compound 0.0316 µM
[8] = second compound 0.1 µM, first compound 0.1 µM
[9] = second compound 0.1 µM, first compound 0.316 µM
[10] = second compound 0.1 µM, first compound 1 µM
[11] = second compound 0.1 µM, first compound 3.16 µM
[12] = second compound 0.1 µM, first compound 10 µM
[13] = second compound 0.316 µM, first compound 0.0316 µM
[14] = second compound 0.316 µM, first compound 0.1 µM
[15] = second compound 0.316 µM, first compound 0.316 µM
[16] = second compound 0.316 µM, first compound 1 µM
[17] = second compound 0.316 µM, first compound 3.16 µM
[18] = second compound 0.316 µM, first compound 10 µM
[19] = second compound 1 µM, first compound 0.0316 µM
[20] = second compound 1 µM, first compound 0.1 µM
[21] = second compound 1 µM, first compound 0.316 µM
[22] = second compound 1 µM, first compound 1 µM
[23] = second compound 1 µM, first compound 3.16 µM
[24] = second compound 1 µM, first compound 10 µM
[25] = second compound 3.16 µM, first compound 0.0316 µM
[26] = second compound 3.16 µM, first compound 0.1 µM
[27] = second compound 3.16 µM, first compound 0.316 µM
[28] = second compound 3.16 µM, first compound 1 µM
[29] = second compound 3.16 µM, first compound 3.16 µM
[30] = second compound 3.16 µM, first compound 10 µM
[31] = second compound 10 µM, first compound 0.0316 µM
[32] = second compound 10 µM, first compound 0.1 µM
[33] = second compound 10 µM, first compound 0.316 µM
[34] = second compound 10 µM, first compound 1 µM
[35] = second compound 10 µM, first compound 3.16 µM
[36] = second compound 10 µM, first compound 10 µM
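Also: spheroids exposed to compounds for one week before readout.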
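For viability, T/C in this document: percent viability relative to DMSO vehicle wells taken as 100%.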

SMILES: COc1cc2cc(C(=O)CCC(=O)O)sc2cc1OC + Cc1cccc(N(C)C(=O)C2C(O)CCN2c2nc(C)cc(C(F)(F)F)c2C#N)c1
- IC50 (second compound 0.0316 µM): > 10000 nM
- IC50 (second compound 0.1 µM): > 10000 nM
- IC50 (second compound 0.316 µM): > 10000 nM
- IC50 (second compound 1 µM): > 10000 nM
- IC50 (second compound 3.16 µM): > 10000 nM
- IC50 (second compound 10 µM): > 10000 nM
- viability, T/C [1]: 99.9%
- viability, T/C [2]: 99.6%
- viability, T/C [3]: 92%
- viability, T/C [4]: 104%
- viability, T/C [5]: 117%
- viability, T/C [6]: 95.9%
- viability, T/C [7]: 100%
- viability, T/C [8]: 109%
- viability, T/C [9]: 109%
- viability, T/C [10]: 108%
- viability, T/C [11]: 116%
- viability, T/C [12]: 102%
- viability, T/C [13]: 96%
- viability, T/C [14]: 103%
- viability, T/C [15]: 102%
- viability, T/C [16]: 109%
- viability, T/C [17]: 103%
- viability, T/C [18]: 101%
- viability, T/C [19]: 105%
- viability, T/C [20]: 101%
- viability, T/C [21]: 95.2%
- viability, T/C [22]: 107%
- viability, T/C [23]: 106%
- viability, T/C [24]: 92.4%
- viability, T/C [25]: 110%
- viability, T/C [26]: 102%
- viability, T/C [27]: 104%
- viability, T/C [28]: 102%
- viability, T/C [29]: 112%
- viability, T/C [30]: 99.3%
- viability, T/C [31]: 109%
- viability, T/C [32]: 102%
- viability, T/C [33]: 99.6%
- viability, T/C [34]: 98.3%
- viability, T/C [35]: 119%
- viability, T/C [36]: 85.1%

SMILES: O=C(Nc1ccc(O)c(NS(=O)(=O)c2ccc(F)cc2)c1)c1ccc(-c2ccccc2)cc1 + Cc1cccc(N(C)C(=O)C2C(O)CCN2c2nc(C)cc(C(F)(F)F)c2C#N)c1
- IC50 (second compound 0.0316 µM): > 10000 nM
- IC50 (second compound 0.1 µM): > 10000 nM
- IC50 (second compound 0.316 µM): > 10000 nM
- IC50 (second compound 1 µM): 6740 nM
- IC50 (second compound 3.16 µM): 8180 nM
- IC50 (second compound 10 µM): 7240 nM
- viability, T/C [1]: 109%
- viability, T/C [2]: 105%
- viability, T/C [3]: 103%
- viability, T/C [4]: 93.7%
- viability, T/C [5]: 101%
- viability, T/C [6]: 72.5%
- viability, T/C [7]: 109%
- viability, T/C [8]: 95.7%
- viability, T/C [9]: 108%
- viability, T/C [10]: 114%
- viability, T/C [11]: 96.5%
- viability, T/C [12]: 76.1%
- viability, T/C [13]: 95.2%
- viability, T/C [14]: 117%
- viability, T/C [15]: 92.1%
- viability, T/C [16]: 108%
- viability, T/C [17]: 103%
- viability, T/C [18]: 73%
- viability, T/C [19]: 98.3%
- viability, T/C [20]: 99.8%
- viability, T/C [21]: 107%
- viability, T/C [22]: 96.6%
- viability, T/C [23]: 82%
- viability, T/C [24]: 33.4%
- viability, T/C [25]: 117%
- viability, T/C [26]: 106%
- viability, T/C [27]: 95.3%
- viability, T/C [28]: 88.1%
- viability, T/C [29]: 95.4%
- viability, T/C [30]: 40.5%
- viability, T/C [31]: 108%
- viability, T/C [32]: 102%
- viability, T/C [33]: 91.8%
- viability, T/C [34]: 93.1%
- viability, T/C [35]: 87.2%
- viability, T/C [36]: 35.8%

SMILES: COc1cccc2c1C(=O)c1c(O)c3c(c(O)c1C2=O)CC(O)(C(=O)CO)CC3OC1CC(N)C(O)C(C)O1 (stereo not drawn) + Nc1ccc(C#CCN(C(=O)Cc2ncc(C(F)(F)F)cc2C(F)(F)F)c2ccc(F)cc2)nn1
- IC50 (second compound 0.0316 µM): 124 nM
- IC50 (second compound 0.1 µM): < 31.6 nM
- IC50 (second compound 0.316 µM): 89.2 nM
- IC50 (second compound 1 µM): 79.2 nM
- IC50 (second compound 3.16 µM): 58.4 nM
- IC50 (second compound 10 µM): < 31.6 nM
- viability, T/C [1]: 53.5%
- viability, T/C [2]: 50.3%
- viability, T/C [3]: 43.8%
- viability, T/C [4]: 20.9%
- viability, T/C [5]: 1.47%
- viability, T/C [6]: 1.5%
- viability, T/C [7]: 52%
- viability, T/C [8]: 46.5%
- viability, T/C [9]: 42.4%
- viability, T/C [10]: 26.1%
- viability, T/C [11]: 1.84%
- viability, T/C [12]: 0.12%
- viability, T/C [13]: 61.7%
- viability, T/C [14]: 41.8%
- viability, T/C [15]: 40.4%
- viability, T/C [16]: 22.4%
- viability, T/C [17]: 0.9%
- viability, T/C [18]: 0.55%
- viability, T/C [19]: 65.2%
- viability, T/C [20]: 40.4%
- viability, T/C [21]: 35.9%
- viability, T/C [22]: 23.1%
- viability, T/C [23]: 2.85%
- viability, T/C [24]: 0.37%
- viability, T/C [25]: 52.8%
- viability, T/C [26]: 48%
- viability, T/C [27]: 35.2%
- viability, T/C [28]: 23.5%
- viability, T/C [29]: 1.29%
- viability, T/C [30]: 0.18%
- viability, T/C [31]: 46.3%
- viability, T/C [32]: 38.1%
- viability, T/C [33]: 27.4%
- viability, T/C [34]: 14.9%
- viability, T/C [35]: 0.84%
- viability, T/C [36]: 0.33%

SMILES: O=c1[nH]cc(F)c(=O)[nH]1 + Nc1ccc(C#CCN(C(=O)Cc2ncc(C(F)(F)F)cc2C(F)(F)F)c2ccc(F)cc2)nn1
- IC50 (second compound 0.0316 µM): 479 nM
- IC50 (second compound 0.1 µM): 509 nM
- IC50 (second compound 0.316 µM): 529 nM
- IC50 (second compound 1 µM): 529 nM
- IC50 (second compound 3.16 µM): 278 nM
- IC50 (second compound 10 µM): 437 nM
- viability, T/C [1]: 101%
- viability, T/C [2]: 82.2%
- viability, T/C [3]: 56.6%
- viability, T/C [4]: 38.9%
- viability, T/C [5]: 35.9%
- viability, T/C [6]: 37.5%
- viability, T/C [7]: 93.3%
- viability, T/C [8]: 92.2%
- viability, T/C [9]: 53.7%
- viability, T/C [10]: 43.5%
- viability, T/C [11]: 44.9%
- viability, T/C [12]: 45.6%
- viability, T/C [13]: 103%
- viability, T/C [14]: 77.6%
- viability, T/C [15]: 60.6%
- viability, T/C [16]: 35.6%
- viability, T/C [17]: 42%
- viability, T/C [18]: 39.7%
- viability, T/C [19]: 97.5%
- viability, T/C [20]: 89.7%
- viability, T/C [21]: 57.5%
- viability, T/C [22]: 40.7%
- viability, T/C [23]: 38.4%
- viability, T/C [24]: 39.7%
- viability, T/C [25]: 95.1%
- viability, T/C [26]: 90.5%
- viability, T/C [27]: 44.8%
- viability, T/C [28]: 41.6%
- viability, T/C [29]: 36.4%
- viability, T/C [30]: 37.5%
- viability, T/C [31]: 91.1%
- viability, T/C [32]: 75.7%
- viability, T/C [33]: 55.5%
- viability, T/C [34]: 38.2%
- viability, T/C [35]: 35.7%
- viability, T/C [36]: 37.6%
